What follows are compounds tested against histone deacetylase (HDAC) (assay: Inhibition of Histone Deacetylase Enzymatic Activity). Details: substrate Boc-Lys(Ac)-AMC, Fluor-de-Lys developer, 37° C., 20 min; against one or more of HDAC-1 to HDAC-11, SirT1 to SirT7 (isoform not given); read-out: HDAC Inhibitory Activity (IC50).
Format: biochemical
Method: The following protocol is used to assay the compounds of the invention. In the assay, the buffer used is 25 mM HEPES, pH 8.0, 137 mM NaCl, 2.7 mM KCl, 1 mM MgCl2 and the substrate is Boc-Lys(Ac)-AMC in a 50 mM stock solution in DMSO. The enzyme stock solution is 4.08 μg/mL in buffer.
The compounds are pre-incubated (2 μl in DMSO diluted to 13 μl in buffer for transfer to assay plate) with enzyme (20 μl of 4.08 μg/mL) for 10 min at room temperature (35 μl pre-incubation volume). The mixture is pre-incubated for 5 min at room temperature. The reaction is started by bringing the temperature to 37° C. and adding 16 μl substrate. Total reaction volume is 50 μl. […] A plate is incubated in the dark for 10 min at room temperature before reading (λEX=360 nm, λEm=470 nm, Cutoff filter at 435 nm).
In the table, “A” indicates inhibitory activity at a concentration of <0.05 μM; “B” indicates inhibitory activity at a concentration >0.05 μM but <0.5 μM, “C” indicates inhibitory activity at >0.5 μM but <2 μM and “D” indicates inhibitory activity at a concentration of >2 μM but <10 μM.
Compound `O=C(CCOC1C[C@@H](C(=O)Nc2cccc3cccnc23)N(C(=O)OCc2ccccc2)C1)NO` (stereo in doubt) [Compound 112d, (2S,4S)-benzyl 4-(3-(hydroxyamino)-3-oxopropoxy)-2-(quinolin-8-ylcarbamoyl) pyrrolidine-1-carboxylate] has an IC50 of 50 to 500 nM.
With `CC(C)[C@@H]1Nc2ccc(C(=O)NO)cc2NC1=O` [Compound 4a, (S)-1,2,3,4-Tetrahydro-N-hydroxy-2-isopropyl-3-oxoquinoxaline-6-carboxamide] the IC50 was 2000 to 10000 nM.
`CSCC[C@@H]1Nc2ccc(C(=O)NO)cc2NC1=O` [Compound 4b, (S)-1,2,3,4-tetrahydro-N-hydroxy-2-(2-(methylthio)ethyl)-3-oxoquinoxaline-6-carboxamide] was tested, and the IC50 was 2000 to 10000 nM.
Compound `O=C(NO)c1ccc2c(c1)NC(=O)[C@H](Cc1c[nH]c3ccccc13)N2` [Compound 4c, (S)-2-((1H-indol-3-yl)methyl)-1,2,3,4-tetrahydro-N-hydroxy-3-oxoquinoxaline-6-carboxamide] has an IC50 of 500 to 2000 nM.
With `CCC(C)[C@@H]1Nc2ccc(C(=O)NO)cc2NC1=O` (stereo partly drawn) [Compound 4d, (S)-2-sec-butyl-1,2,3,4-tetrahydro-N-hydroxy-3-oxoquinoxaline-6-carboxamide] the IC50 was 2000 to 10000 nM.
For `CC(C)[C@H]1Nc2ccc(C(=O)NO)cc2NC1=O` [Compound 4e, (R)-1,2,3,4-tetrahydro-N-hydroxy-2-isopropyl-3-oxoquinoxaline-6-carboxamide], the IC50 was 2000 to 10000 nM.
`O=C(NO)c1ccc2c(c1)NC(=O)[C@@H](Cc1c[nH]c3ccccc13)N2` [Compound 4f, (R)-2-((1H-indol-3-yl)methyl)-1,2,3,4-tetrahydro-N-hydroxy-3-oxoquinoxaline-6-carboxamide] gave an IC50 of 2000 to 10000 nM.
For `O=C(NO)c1ccc2c(c1)NC(=O)[C@H](Cc1cn(C(c3ccccc3)(c3ccccc3)c3ccccc3)cn1)N2` [Compound 4g, (S)-1,2,3,4-tetrahydro-N-hydroxy-3-oxo-2-((1-trityl-1H-imidazol-4-yl)methyl)quinoxaline-6-carboxamide], the IC50 was 2000 to 10000 nM.
`CC(C)(C)Oc1ccc(C[C@@H]2Nc3ccc(C(=O)NO)cc3NC2=O)cc1` [Compound 4h, (S)-2-(4-tert-butoxybenzyl)-1,2,3,4-tetrahydro-N-hydroxy-3-oxoquinoxaline-6-carboxamide] showed an IC50 of 2000 to 10000 nM.
`O=C(NO)c1ccc2c(c1)NC(=O)[C@H](Cc1ccccc1)N2` [Compound 4i, (S)-2-Benzyl-1,2,3,4-tetrahydro-N-hydroxy-3-oxoquinoxaline-6-carboxamide] gave an IC50 of 2000 to 10000 nM.
Work on `CC(C)C[C@@H]1Nc2ccc(C(=O)NO)cc2NC1=O` [Compound 4k, (S)-1,2,3,4-Tetrahydro-N-hydroxy-2-isobutyl-3-oxoquinoxaline-6-carboxamide] yielded an IC50 of 2000 to 10000 nM.
`Cn1cc(C[C@@H]2Nc3ccc(C(=O)NO)cc3NC2=O)c2ccccc21` [Compound 4l, (S)-1,2,3,4-tetrahydro-N-hydroxy-2-((1-methyl-1-H-indol-3-yl)methyl)-3-oxoquinoxaline-6-carboxamide] was tested, and the IC50 was 500 to 2000 nM.
`Nc1ccccc1NC(=O)c1ccc2c(c1)NC(=O)[C@H](Cc1c[nH]c3ccccc13)N2` [Compound 5c, (S)-2-((1H-indol-3-yl)methyl)-N-(2-aminophenyl)-1,2,3,4-tetrahydro-3-oxoquinoxaline-6-carboxamide] gave an IC50 of 2000 to 10000 nM.
Compound `O=C(NO)c1ccc2c(c1)NC(=O)[C@H](Cc1ccc(O)cc1)N2` [Compound 6h, (S)-2-(4-Hydroxybenzyl)-1,2,3,4-tetrahydro-N-hydroxy-3-oxoquinoxaline-6-carboxamide] has an IC50 of 2000 to 10000 nM.
With `COc1ccc(CN2c3ccc(C(=O)NO)cc3NC(=O)[C@@H]2C(C)C)cc1` [Compound 8, (S)-1-(4-Methoxybenzyl)-1,2,3,4-tetrahydro-N-hydroxy-2-isopropyl-3oxoquinoxaline-6-carboxamide] the IC50 was 500 to 2000 nM.
With `CC(C)[C@@H]1Nc2ccc(C(=O)NCCCCCC(=O)NO)cc2NC1=O` [Compound 13, (S)—N-(5-(Hydroxycarbamoyl)pentyl)-1,2,3,4-tetrahydro-2-isopropyl-3-oxoquinoxaline-6-carboxamide] the IC50 was 50 to 500 nM.
Compound `CC(C)[C@H]1C(=O)Nc2cc(C(=O)NO)ccc2N1Cc1ccc(F)cc1` [Compound 16a, (S)-1-(4-fluorobenzyl)-N-hydroxy-2-isopropyl-3-oxo-1,2,3,4-tetrahydroquinoxaline-6-carboxamide] has an IC50 of 2000 to 10000 nM.
`CC(C)[C@H]1C(=O)Nc2cc(C(=O)NO)ccc2N1Cc1ccc(O)cc1` [Compound 16b, (S)-1-(4-hydroxybenzyl)-1,2,3,4-tetrahydro-N-hydroxy-2-isopropyl-3-oxoquinoxaline-6-carboxamide] showed an IC50 of 500 to 2000 nM.
For `CC(C)[C@H]1C(=O)Nc2cc(C(=O)NO)ccc2N1CCCc1ccccc1` [Compound 16c, (S)-1,2,3,4-tetrahydro-N-hydroxy-2-isopropyl-3-oxo-1-(3-phenylpropyl)quinoxaline-6-carboxamide], the IC50 was 500 to 2000 nM.
In the case of `CC(C)[C@H]1C(=O)Nc2cc(C(=O)NO)ccc2N1Cc1ccc(C(=O)O)cc1` [Compound 16d, 4-(((S)-7-(hydroxycarbamoyl)-2,3-dihydro-3-isopropyl-2-oxoquinoxalin-4(1H)-yl)methyl)benzoic acid], the IC50 is reported as 2000 to 10000 nM.
`CC(C)[C@H]1C(=O)Nc2cc(C(=O)NO)ccc2N1Cc1cccs1` [Compound 16e, (S)-1,2,3,4-tetrahydro-N-hydroxy-2-isopropyl-3-oxo-1-((thiophen-2-yl)methyl)quinoxaline-6-carboxamide] gave an IC50 of 2000 to 10000 nM.
With `CC(C)[C@H]1C(=O)Nc2cc(C(=O)NO)ccc2N1Cc1ccc(C(=N)NO)cc1` [Compound 16f, (S)—N-hydroxy-1-(4-(N-hydroxycarbamimidoyl)benzyl)-2-isopropyl-3-oxo-1,2,3,4-tetrahydroquinoxaline-6-carboxamide] the IC50 was 50 to 500 nM.
For `CC(C)[C@H]1C(=O)Nc2cc(C(=O)NO)ccc2N1Cc1ccccc1` [Compound 16g, (S)-1-benzyl-1,2,3,4-tetrahydro-N-hydroxy-2-isopropyl-3-oxoquinoxaline-6-carboxamide], the IC50 was 2000 to 10000 nM.
`CC(C)[C@H]1C(=O)Nc2cc(C(=O)NO)ccc2N1Cc1ccc2ccccc2c1` [Compound 16h, (S)-1,2,3,4-tetrahydro-N-hydroxy-2-isopropyl-1-((naphthalen-3-yl)methyl)-3-oxoquinoxaline-6-carboxamide] gave an IC50 of 500 to 2000 nM.
Compound `CC(C)[C@H]1C(=O)Nc2cc(C(=O)NO)ccc2N1S(=O)(=O)c1ccccc1` [Compound 18a, (S)—N-hydroxy-2-isopropyl-3-oxo-1-(phenylsulfonyl)-1,2,3,4-tetrahydroquinoxaline-6-carboxamide] has an IC50 of 2000 to 10000 nM.
`CC(C)[C@H]1C(=O)Nc2cc(C(=O)NO)ccc2N1S(=O)(=O)c1ccc(-c2ccccc2)cc1` [Compound 18b, (S)—N-hydroxy-1-(biphenyl-4-sulfonyl)-2-isopropyl-3-oxo-1,2,3,4-tetrahydroquinoxaline-6-carboxamide] gave an IC50 of 500 to 2000 nM.
`Cc1cc(C)c(S(=O)(=O)N2c3ccc(C(=O)NO)cc3NC(=O)[C@@H]2C(C)C)c(C)c1` [Compound 18c, (S)—N-hydroxy-2-isopropyl-3-oxo-1-(2,4,6-trimethybenzenesulfonyl)-1,2,3,4-tetrahydroquinoxaline-6-carboxamide] gave an IC50 of 2000 to 10000 nM.
For `CC(C)[C@H]1C(=O)Nc2cc(C(=O)NO)ccc2N1S(=O)(=O)c1cccc2ccccc12` [Compound 18f], the IC50 was 500 to 2000 nM.
